Source: US10077236B2, “Azacyclic constrained analogs of FTY720” (The Regents of the University of California, priority 2013, dated 2018)
“Also recorded” adds a separate entry of the source.

Tests used:
circulating lymphocytes = experiment: Lymphocyte sequestration (circulating lymphocytes); format: in vivo, mouse; conditions: number of circulating lymphocytes 12 h after dosage
Excerpt: As previously discussed, FTY720 itself cannot be used in cancer patients because phosphorylation of FTY720 by SphKs makes FTY720-P, which acts at S1P receptors to cause bradycardia and immunosuppression (on-target effect for primary use).

human colon cancer cells = experiment: Combination with trametinib in human colon cancer cells; format: cell-based
BCR-Abl+ SFO2 cells = experiment: Combination with trametinib in BCR-Abl+ SFO2 patient-derived leukemia cells; format: cell-based, human; conditions: cytostatic concentration of trametinib + cytostatic concentration of compound 6
Excerpt: FIGS. 10n and 10o provide data results from a study of the effectiveness of treating BCR-Abl+ SFO2 cells (10n), and also in BCR-Abl− LAX7R cells (10o), which is a late-stage leukemia resistant to chemotherapy.

Nalm-6 Ph- ALL cell line = experiment: Cell viability assay, Nalm-6; format: cell-based, human; conditions: 72 h, vital dye exclusion and flow cytometry; read-out: Mean IC50 (+/- SEM) in cell viability assay, Nalm-6 Ph- ALL
Excerpt: (§1) Leukemia cell assays: Effects of chemical changes on ability to kill cells as observed in cell viability assays using the BCR-ABL positive human acute lymphoblastic leukemia (ALL) cell line, Sup-B15 are described. Assays using the Sup-B15 cell line were designed to determine efficacy of azacyclic constrained small molecule analogs of FTY720 in killing leukemia cells. Analogs were generated using the synthesis methods mentioned above. Sup-B15 cells were maintained at 2-3 million/mL in RPMI 1640 (by Mediatech™) supplemented with 10% fetal calf serum (by Sigma-Aldrich™), 10 mM Hepes (by Mediatech™), 55 μM β-mercaptoethanol (by Sigma-Aldrich™), 2 mM L-glutamine (by Mediatech™), and antibiotics. BV173, Nalm-6, and Blin-1 were maintained at 1-2 million/mL and CCRF-CEM at less than 500,000/mL in the same medium. BMp190 cells were created by transducing murine bone marrow cells with pMIC-p190 which expresses the p190 isoform of BCR-Abl and human CD4 from an IRES; these cells were kept at 1-2 million/mL in RPMI supplemented as above.
(§2) Flow cytometry: Much of the biological activity presented is shown through flow cytometry data. […] Here, IC50 flow cytometry assays were used. In them, viability was determined at 72 hours by vital dye exclusion [propium iodide or DAPI (4′,6-diamindino-2-phenylindole)]. To measure nutrient receptor expression following exposure to FTY720 and azacyclic constrained analogs of FTY720, surface 4F2hc expression was measured after 3 hours of drug treatment by staining 150,000 cells with phycoerythrin-conjugated mouse anti-human CD98 (by BD Biosciences™). Analysis was restricted to viable cells.
(§3) All samples for the disclosed sets of data were analyzed on a BD LSR II flow cytometer and data analyzed with FlowJo™ software (by Treestar™). IC50's were calculated and statistical tests were performed using GraphPad Prism™.

[1] = tested on: BMp190 cells (murine bone marrow transduced with BCR-Abl p190); experiment: Cell viability assay, BCR-Abl p190-expressing murine bone marrow (BM-p190); format: cell-based
Excerpt: as §1, §2, §3

[2] = tested on: SupB15 model, leukemic burden in the bone marrow; experiment: In vivo SupB15 leukemia model; conditions: 21 days of treatment, 10 mg/kg i.p.
Excerpt: Since compound 6 worked so well in the leukemia cell line, an examination of its effectiveness in vivo in a SupB15 model was undertaken.

[3] = tested on: patient-derived BCR-Abl+ acute lymphoblastic leukemia cells; experiment: Viability of patient-derived BCR-Abl+ acute lymphoblastic leukemia cells; format: cell-based, human; conditions: 96 h, flow cytometry (vital dye exclusion)
Description: Finally, in FIG. 10g dose response curves are provided for studies conducted with patient-derived BCR-Abl+ acute lymphoblastic leukemia cells. Viability was measured at 96 h by flow cytometry (vital dye exclusion).

[4] = tested on: sphingosine-1-phosphate receptors; experiment: S1P receptor activation in CHO cells expressing the receptors; format: cell-based; conditions: added to CHO cells expressing the receptors
Description: When the pure phosphates are added to these CHO cells, multiple S1P receptors are activated when the phosphates are present at 1-10 uM. There is no enantiomer-selectivity in the activation of S1P receptors.

sphingosine kinase 2 = biological target: T1, sphingosine kinase 2 (Mus musculus, UniProt Q9JIA7); experiment: Phosphorylation by sphingosine kinase 2 in cells; format: cell-based
T1 construct: endogenous in cells
T1 sequence (Q9JIA7 1-617): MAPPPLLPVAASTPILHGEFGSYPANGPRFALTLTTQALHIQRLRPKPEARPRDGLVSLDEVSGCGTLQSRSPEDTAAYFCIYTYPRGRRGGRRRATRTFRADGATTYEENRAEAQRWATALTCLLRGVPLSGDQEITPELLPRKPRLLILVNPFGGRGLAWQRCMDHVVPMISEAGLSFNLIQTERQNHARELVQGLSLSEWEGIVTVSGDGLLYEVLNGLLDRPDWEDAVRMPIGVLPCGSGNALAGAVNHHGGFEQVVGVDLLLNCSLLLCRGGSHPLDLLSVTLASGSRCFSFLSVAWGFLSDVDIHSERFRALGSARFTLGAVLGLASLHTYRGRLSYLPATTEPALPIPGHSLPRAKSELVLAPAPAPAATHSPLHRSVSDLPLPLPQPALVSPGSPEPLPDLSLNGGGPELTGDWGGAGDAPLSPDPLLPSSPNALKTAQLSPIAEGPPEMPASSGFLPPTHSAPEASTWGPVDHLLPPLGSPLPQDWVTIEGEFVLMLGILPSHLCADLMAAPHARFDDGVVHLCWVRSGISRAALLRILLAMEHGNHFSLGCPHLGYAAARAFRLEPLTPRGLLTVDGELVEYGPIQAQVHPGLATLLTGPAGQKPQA
Description: The importance of phosphorylation in the activity of compound 6 was then examined. In this study MEF knockout lines that show the same differential sensitivity to compound 6 relative to its enantiomers as leukemia cells were used (FIG. 10h). […] A phosphate and a non-phosphorylatable analog of compound 6 were then tested.

[5] = tested on: Sup-B15 BCR-ABL positive human acute lymphoblastic leukemia (ALL) cell line; experiment: Cell viability assay, Sup-B15 leukemia cells (flow cytometry, vital dye exclusion); format: cell-based; conditions: for cell death in combination with dasatinib: 72 h
Excerpt: as §1, §2, §3

CCCCCCCCc1ccc(CO[C@@H]2CN[C@@H](CO)C2)cc1.Cl [Compound 6]
lymphocyte sequestration / immunosuppression (circulating lymphocytes): does not cause immunosuppression
cell killing, combination of trametinib and compound 6 (human colon cancer cells): can kill human colon cancer cells
cell killing, single agent (human colon cancer cells): do not die
cell killing, combination with trametinib (BCR-Abl+ SFO2 cells): kills patient-derived leukemia cells without killing the irradiated stromal cell layer
IC50 (Nalm-6 Ph- ALL cell line): 13.5 ± 2.4 µM
IC50 ([1]; 72 h, vital dye exclusion and flow cytometry, read-out: Mean IC50 (+/- SEM) in cell viability assay, BM-p190): 0.5 ± 0.1 µM
more active than compound 5 ([1]; murine bone marrow transformed by BCR-ABL p190): 10 fold
leukemic burden in the bone marrow [2]: dramatic reduction in the leukemic burden in the bone marrow
potency in dose response, viability [3]: more potent than FTY720 and its enantiomer, compound 39
activation of sphingosine-1-phosphate receptors [4]: do not activate sphingosine-1-phosphate receptors
phosphorylation by sphingosine kinase 2 in cells (sphingosine kinase 2): more efficient
cell killing at 72 h ([5]; 1 μM (=0.5×IC50), alone): does not kill
cell death in combination with dasatinib ([5]; 1 μM compound 6 + dasatinib 200 nM): increases cell death
cell viability at 72 h ([5]; 2 μM (1×IC50), alone): significantly reduces cell viability
cell death in combination with dasatinib ([5]; 2 μM compound 6 + dasatinib): increases cell death beyond that caused by compound 6 alone
IC50 ([5]; BCR-Abl+ SupB15 leukemia cell line, read-out: IC50): 2 µM
ability to kill leukemia cells, potency compared in words ([5]; Sup-B15 cell viability assays): activity much greater than compounds 5, 7, and 8; also recorded: enhanced anticancer activity relative to its diasteromeric congeners and to FTY720
killing compared with dasatinib ([5]; both drugs at their maximally active dose): kills better than dasatinib
